Data: ChEMBL document CHEMBL3507680, “University of Dundee, Gates Library screen for HepG2 cell viability”

Assay: Human HepG2 cell viability assay in 384 well format
Type: toxicity, cell-based
Parameters: dose 125 nL, time 70.5 hour; concentration not given beside the values
Conditions: HepG2 cells, read-out: Inhibition

Structure (SMILES) | cytotoxicity at 70.5 h [%]
NC(=O)CN1C(=O)CO[C@H]2CN(Cc3ccccc3)C[C@H]21 | -0.937
COc1ccc2c(c1)CC(NCCCn1nc(C)nc1C)CC2 (configuration not stated) | -9.14
CC(C)CC(C)NC1CCN(c2ccc(-c3cscn3)cc2)CC1 (configuration not stated) | -15.5
CN1CCCC2(CCN(c3cccc(C#N)n3)C2)C1=O (configuration not stated) | -8.81
Cc1ccc2cccc(C(=O)NCCOCC3CC3)c2n1 | -0.418
O=C(CN1CCCC1c1nc(-c2ccccn2)no1)N1CCNCC1 (configuration not stated) | -4.93
Cc1cc(C(=O)N2CCCC(n3ccnc3C)C2)c(C)s1 (configuration not stated) | -11.2
COCC1CN(c2ccc(C)nn2)Cc2cnn(CC3CCOCC3)c21 (configuration not stated) | -6.71
CCOCCN1CCN(CCCc2nnnn2-c2ccccc2)CC1 | -5.57
OC1CCN(Cc2ccc(CNc3ncc(Cl)cc3F)cc2)CC1 | 14.7
CCOc1ccc(N(C)Cc2nnc(C)o2)cc1 | 19.3
CN1CCN(S(=O)(=O)C2CC2)Cc2cccnc21 | -0.334
CCCOC(=O)c1ccc(-c2ccc(/C=C3\C(=O)NC(=N)N3C)o2)cc1 | 18.1
Cn1ccnc1CN1CCN2C[C@H](OCc3ccccc3)C[C@H]2C1 | -1.75
N#Cc1ccccc1OCCN1CCN(C(=O)C2CCCC2)CC1 | 7.87
COc1nn(C)c2c1CCCN(C(=O)c1ccc3ccccc3n1)C2 | 8.68
Cc1cnc(NC2CCc3c(ccc(=O)n3CC3CC3)C2)nc1 (configuration not stated) | -5.47
OCc1ccc(CN2CCC(n3cc(-c4ccc(F)cc4)nn3)CC2)o1 | -8.09
COCc1nc(NCC2CCS(=O)(=O)C2)c2cnn(C)c2n1 (configuration not stated) | -7.96
CC(C)c1nc(CNC2CCN(S(C)(=O)=O)CC2)cs1 | 20.3
Cc1nc(C(C)C)sc1C(=O)N(C)CCCc1cnn(C)c1 | -7.28
CNCC(=O)N1CCCC1c1nc(C(C)C)no1 (configuration not stated) | -7.36
Cc1cc(NC(=O)CN2CCN(c3nccs3)C(C)C2)no1 (configuration not stated) | -8.11

Structure (SMILES) | cytotoxicity at 70.5 h [%]
O=C(CCCn1cncn1)N1CCC2(CCCN(C3CCCC3)C2=O)C1 (configuration not stated) | -4.98
CCC[C@H]1CN(S(=O)(=O)c2c(C)noc2C)C[C@@H]1N | -3.53
O=C(c1ccccc1)N1CCO[C@@H]2CN(Cc3ccc[nH]3)C[C@@H]2C1 | 1.61
Cc1cc(CS(=O)(=O)C(C)C(=O)N(C)c2ccccc2)on1 (configuration not stated) | -28.7
Cc1csc(CNC(=O)Cc2ccc3c(c2)OCCO3)n1 | -5.71
O=C1OCCN1Cc1ccc(C(F)(F)F)cc1F | -6.21
O=C(Nc1cccnc1)C1Cc2nc(-c3ccsc3)sc2N1CC1CC1 (configuration not stated) | 15.3
O=C(CC1CCCC1)N1C[C@@H]2C[C@H]1CN2 | -3.6
Cc1nc(CN2CCCN(CCCc3ccccc3)CC2)no1 | -7.12
Cc1nc(Nc2nncs2)cc(C2CCCN2C)n1 (configuration not stated) | 3.74
O=C(N1CCC2(CC1)[C@H](O)C[C@@H]2O)C1(c2ccccc2F)CC1 | 1.59
CCOc1ccc2[nH]c(=O)c(CN3CCN(S(N)(=O)=O)CC3)cc2c1 | -11.9
Cc1cnn(CC2CCCCN2C(=O)c2cnc3n[nH]c(C)c3c2)c1 (configuration not stated) | -4.13
CCn1cc(CN2CCCN(C(=O)c3ccccc3C)CC2)cn1 | -2.18
Cn1c(CCNC(=O)CC[C@@H]2CCCN3CCCC[C@H]23)n[nH]c1=O | -14.7
CCOCC(=O)N1CC[C@H]2OCC[C@@H](c3nnc(C)o3)[C@H]2C1 | 0.355
Cc1cccc(OC2CCN(S(=O)(=O)Cc3cccc(F)c3)CC2)n1 | -1.18
CC(C)NC(=O)c1cc2c(s1)CCN2C(=O)CN(C)C | -4.91
Cc1cc(C(=O)N2CCCC(n3nc(C)cc3C)C2)on1 (configuration not stated) | -10.1
N#Cc1c(F)cccc1Nc1cnn(CC(N)=O)c1 | -112
COc1ccc(C(=O)N2CCN(c3cc(CCN)nc(C)n3)CC2)cc1 | -0.395
Cn1cc(-c2nc(CN3CCc4c(ncn4C)C3)cs2)cn1 | 31
CNS(=O)(=O)c1ccc(CN(C)Cc2nc3ccc(F)cc3[nH]2)cc1 | -4.95

Structure (SMILES) | cytotoxicity at 70.5 h [%]
Cc1nnc(NC(=O)NCc2ccnc(N(C)C)c2)s1 | 1.13
CC(C)(C)c1cn(C2CCN(C3CCSC3)CC2)nn1 (configuration not stated) | -7.05
COCC(=O)N1CC[C@]2(O)CCN(Cc3cccnc3OC)C[C@@H]2C1 | -7.29
Cc1cccc(CN2Cc3[nH]nc(COCCO)c3C2)n1 | -0.969
CCn1c(C)cc(C(=O)N2CCC(NC(=O)c3cc(C)no3)CC2)c1C | -112
O=C(c1ccccn1)N1CCCC(c2cc(C(F)F)n3ncnc3n2)C1 (configuration not stated) | -4.56
CCc1nnsc1C(=O)NCC1CN(CC(C)C)CCO1 (configuration not stated) | 22.5
COc1ccc2cc(CNc3c(C)nn(C(C)C)c3C)ccc2c1 | -0.974
CC(C)CN1C(=O)CO[C@@H]2CN(C(=O)N3CCOCC3)C[C@H]21 | -2.58
FC(F)c1nnc2ccc(N3CCC4(CCOC4)C3)nn12 (configuration not stated) | 7.83
COC(=O)N1CCN(c2ncnc3nc(C)cc(C)c23)CC1 | -4.12
Cc1ccc2[nH]nc(C(=O)NCC3CCN(Cc4c[nH]cn4)C3)c2c1 (configuration not stated) | -5.7
O=C(NCCc1cccs1)[C@]12COC[C@H]1CN(Cc1ccccn1)C2 | 39.1
O=C1CC2(CCN(c3nncs3)C2)CN1c1ccccc1 (configuration not stated) | -1.13
CSc1ccc(C(C(=O)O)N2CCC(C(=O)N3CCCC3)CC2)cc1 (configuration not stated) | -4.74
Cc1ccc(CN2CC[C@@H](NC(=O)c3cccnc3)[C@H](O)C2)o1 | -13.3
CCn1ccnc1CN1CCCN(CC2CC2)C(C(C)C)C1 (configuration not stated) | -5.83
Cc1cnn(CCCNC(=O)NCCS(=O)(=O)Nc2ccccc2)c1 | -25.5
CCc1nc(CN2CCCC(NCc3nc4cccnc4[nH]3)C2)no1 (configuration not stated) | 18.9
Cc1cc(CN2CCN(C(c3ccccc3)c3ccccc3)CC2)no1 | 1.19
Cc1c[nH]nc1C1CN(Cc2cnn(-c3ccccc3C(=O)O)c2)C1 | -6.87
CCOc1nnc(CN(C)C2CCCN(c3cccnn3)C2)s1 (configuration not stated) | 3.52
CNC(=O)c1ccc(C2CN(C(=O)c3scnc3C)CCO2)nc1 (configuration not stated) | -3.13

Structure (SMILES) | cytotoxicity at 70.5 h [%]
Cn1cc(C(=O)N2CCC(c3cc(CCO)n(C)n3)C2)cn1 (configuration not stated) | -4.36
Cn1cnnc1S(=O)(=O)Cc1cc(Cl)c2c(c1)OCCO2 | -1.41
Cc1nc(C(=O)N2C[C@@H]3COC[C@]3(COCc3cccnc3)C2)cs1 | -6.56
O=C(NCCc1nncn1C1CC1)c1cnn(Cc2ccccc2)c1 | -11.1
Cc1ccc(-c2noc(CN3CCC(N4CCNC4=O)CC3)n2)cc1 | 20.8
Cc1cccc(C(C)CNC(=O)N2CCC3(C2)OCCO3)c1 (configuration not stated) | 12.8
COCC(=O)Nc1ccc(-c2noc([C@@H]3CCCN3C(C)C)n2)cn1 | -2.85
CC(=O)N1CCN(C(C)C)CC(COc2ccccc2)C1 (configuration not stated) | -6.04
COC(=O)C(NC(=O)COC1CCCC1)c1cc(F)ccc1F (configuration not stated) | -11.6
Cn1cc(C2CC(=O)NC23CCN(C(=O)c2ccc[nH]2)CC3)cn1 (configuration not stated) | -1.53
CN(C)CCN(C)C[C@@H]1CN(C(=O)NC2CCCC2)C[C@@H]1CO | -8.45
N#Cc1cccc(CN2CCCC2c2ccc[nH]2)c1 (configuration not stated) | 15.2
CC(NC(=O)NCCCn1cccn1)c1ccc2c(c1)OCCCO2 (configuration not stated) | 13.2
CCc1cc(N[C@H](C(N)=O)C(C)C)n2nc(C)c(C)c2n1 | -6.29
Cc1cnc2n(c1=O)C(CC(=O)NCc1cccnc1)CS2 (configuration not stated) | -0.178
O=C(COCC(F)(F)F)N1CCCC(n2cccn2)C1 (configuration not stated) | -8.85
O=C(C1CC=CC1)N1C[C@@H]2CN(Cc3ccsc3)CCO[C@@H]2C1 | -15.4
Cc1c(Br)cccc1C(=O)NCc1cnn(C)c1 | 2.04
CSCC1CCN(c2nc(N)ncc2C)CC1 | -9.1
Cc1nc(CN(C)C2CCN(CCc3ccc4c(c3)CCO4)C2)no1 (configuration not stated) | 1.48
CCc1nc(N2CCC3(CC2)OCCCC3O)ncc1C (configuration not stated) | -2.39
Cc1cnc(C)c(N2CCCC(C/C=C/c3ccccc3)(C(=O)O)C2)n1 (configuration not stated) | -7.68
Cc1ccc(NC2CCN(C(=O)CCc3ccco3)CC2)nn1 | -9.84

Structure (SMILES) | cytotoxicity at 70.5 h [%]
Cc1ccccc1CN1CCN(C(=O)CCn2ccccc2=O)CC1 | -12.1
CCS(=O)(=O)CCNC(=O)NCc1ccccc1-n1cccn1 | 2.95
CCCn1ncc(C(=O)N(C)Cc2cc(C3CC3)[nH]n2)c1C | 0.995
CC(C)N1CCO[C@H]2CN(C(=O)c3ccc(N(C)C)cc3)C[C@H]21 | -2.38
CC(C)OCCOCc1cccc(NC(=O)NCCn2ccnc2)c1 | -8.94
CCOC(=O)c1nc(COc2c(C)occc2=O)no1 | -20.5
CC(=O)N(C)CC(=O)NCC1(c2cccc(C)c2)CCCC1 | 1.29
CN(CC1CCC1)C(=O)c1ccc(-c2nc(C3CC3)n[nH]2)cc1 | -8.67
CCOC(=O)CC1CCCCN1C(=O)CCc1cc(Cl)no1 (configuration not stated) | -1.88
COC[C@@]12CC[C@@H](N3CCOCC3)C[C@H]1CCN(c1ncccc1Cl)C2 | -4.77
C[C@@H]1CN(C(=O)CCN2CCCC2)CC[C@@]1(O)C1CCC1 | 1.37
O=C(O)CN1CCC(F)(F)C2(CCN(c3ccccn3)C2)C1 (configuration not stated) | 2.21
CCOc1cccc(NC(=O)c2cc(C)on2)n1 | -5.47
N#Cc1ccc(OC2CCN(CC(=O)NCC(F)(F)F)CC2)cc1 | -12.8
Cc1ccc(N2CC[C@H]3[C@@H]2CCC(=O)N3CCN2CCOCC2)nn1 | -6.53
Cc1ccc(NC(=O)NCCCn2nc3ccccn3c2=O)cc1 | -0.527
CCNC(=O)[C@@H]1C[C@@H](n2cc(CN(CC)CC)nn2)CN1 | -13.5
O=C(CCCc1nc(-c2ccccc2)no1)N1CCN(CCO)CC1 | 17.6
CC(=O)Nc1cc(C(=O)N2CCOCC2c2ccc(C)o2)ccc1F (configuration not stated) | -6.36
O=C(CCc1nnc2ccccn2c1=O)NCc1ccco1 | 24.6
